Biological target: T1, serine protease trypsin (Bos taurus, UniProt P00760)
T1 construct: purchased Sigma-Aldrich T1426
T1 sequence (P00760 24-246): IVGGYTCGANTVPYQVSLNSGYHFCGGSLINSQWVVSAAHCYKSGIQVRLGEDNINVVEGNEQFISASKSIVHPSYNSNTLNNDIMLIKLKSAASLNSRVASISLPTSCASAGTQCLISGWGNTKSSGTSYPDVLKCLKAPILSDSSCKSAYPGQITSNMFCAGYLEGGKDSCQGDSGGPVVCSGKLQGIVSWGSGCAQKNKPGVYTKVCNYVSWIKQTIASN
Experiment: Trypsin inhibition (protease inhibition assay, BAPNA substrate)
Assay type: biochemical
Settings: for IC50: Tris buffer (50 mM Tris-HCl, 100 mM NaCl, 1 mM CaCl2, pH 7.5), 37 °C, 5 min pre-incubation, absorbance 405 nm, kinetic over 10 min; for IC50 values for trypsin compared with those of aeruginosins KT608A and KT608B: comparison with literature values of KT608A and KT608B [19]
Description: The samples for biological assays were dissolved in ethanol at a concentration of 1 mg/mL and further diluted with Tris buffer to the desired concentrations. The samples were tested for inhibition of trypsin (Cat# T1426, Sigma-Aldrich, St. Louis, MO, USA). The assay was performed in a Tris buffer (50 mM Tris-HCl, 100 mM NaCl, and 1 mM CaCl2 at pH 7.5). Benzoyl-L-arginine-p-nitroanilide hydrochloride (BAPNA Cat# 03,310 Chem-Impex Int’l Inc., Wood Dale, IL, USA), the trypsin substrate was dissolved at 1 mg/mL in 1:9 EtOH/buffer. The enzyme was dissolved in a buffer at 1 mg/mL. To each well were added 100 µL of buffer, 10 µL of enzyme, and 10 µL of sample. The plate was placed in the spectrophotometer at 37 °C. After 5 min, 100 µL of substrate solution was added to each well, and the plate was placed in the spectrophotometer for the kinetic measurement of the absorbance intensity over 10 min at a wavelength of 405 nm.

Molecule | Inhibition of trypsin (inactive at tested concentration) (at a concentration of 1.7 mM, BAPNA substrate, pH 7.5, 37 °C, 405 nm) | IC50 (BAPNA substrate) | IC50 values for trypsin compared with those of aeruginosins KT608A and KT608B
6-Cl-Hpla-7-sulfate-2-Ile-Choi-amide [Aeruginosin KT575] | inactive |  | 
N=C(N)NCCCCNC(=O)[C@@H]1C[C@@H]2CC[C@@H](OS(=O)(=O)O)C[C@@H]2N1C(=O)[C@@H](Cc1ccccc1)NC(=O)[C@@H](O)Cc1ccc(O)cc1 [Aeruginosin KT688, L-Hpla-D-Phe-L-Choi-6-sulfate-agmatine] |  | 2.38 µM | comparable with those of aeruginosins KT608A and KT608B
N=C(N)NCCCCNC(=O)[C@@H]1C[C@@H]2CC[C@@H](OS(=O)(=O)O)C[C@@H]2N1C(=O)[C@H](CCc1ccc(O)cc1)NC(=O)[C@@H](O)Cc1ccc(O)cc1 [Aeruginosin KT718, L-Hpla-L-Hty-L-Choi-6-sulfate-Agm] |  | 1.43 µM | comparable with those of aeruginosins KT608A and KT608B
